Legend:
CDK9/Cyclin T1 = target: T1, CDK9/Cyclin T1 (Homo sapiens, UniProt P50750); experiment: CDK9/CyclinT1 Enzymatic Activity Assay (TR-FRET); format: biochemical; conditions: ATP 1 mM, recombinant CDK9/Cyclin T1 1 nM, read-out: CDK9_T1 IC50
T1 construct: purchased ProQinase; host or cells: insect cell
Experimental: CDK9/CyclinT1 Enzymatic Activity Assay
(§1) The inhibitory activity of compounds was evaluated in vitro using TR-FRET assay with white 384-well low volume microplate (Greiner Bio-One). CDK9/Cyclin T1 catalyzed phosphorylation of peptides in the presence and absence of compounds was measured and used in IC50 determination. Recombinant protein complex CDK9/Cyclin T1, expressed from insect cell, was purchased from ProQinase. Testing compounds were dissolved in DMSO at 1 mM and tested in 9-dose IC50 mode. The reaction mixture was prepared by mixing CDK9/CyclinT1 (1 nM final), ULight-4E-BP1 (50 nM final, Perkinelmer, TRF0128-D), and ATP (1 mM final) in assay buffer (20 mM of HEPES pH 7.4, 1 mM of EGTA, 0.05% BSA, 0.005% Tween 20, and 1 mM TCEP). The compound of interest in DMSO was added to each well in 3-fold serial dilution by the dispenser (TECAN D300E) to make a 9.9 μL of the reaction mixture. After 20 minutes of preincubation at room temperature, 0.1 μL MgCl2 (10 mM final) was added to initiate the reaction. Following a 45 minutes incubation at 37° C., the reaction was stopped by the addition of 2 μL of quenching buffer consisting of Lance detection buffer (Perkinelmer CR97-100C), LANCE Ultra Europium-anti-P-4E-BP1 (Perkinelmer, TRF0216-D), EDTA, and incubate at room temperature for additional 60 minutes in the dark. The reaction signal was measured by Envision multimode plate reader (PerkinElmer, 2102-0010). IC50 values were determined by fitting the data to the standard 4 parameters with Hill Slope using GraphPad Prism software.

CDK4/Cyclin D1 = target: T2, CDK4/Cyclin D1 (Homo sapiens, UniProt P11802); experiment: CDK4/CyclinD1 Enzymatic Activity Assay (TR-FRET); format: biochemical; conditions: ATP 2 mM, recombinant CDK4/Cyclin D1 1 nM, read-out: CDK4_D1 IC50
T2 construct: purchased ProQinase; host or cells: insect cell
T2 sequence (P11802 whole entry): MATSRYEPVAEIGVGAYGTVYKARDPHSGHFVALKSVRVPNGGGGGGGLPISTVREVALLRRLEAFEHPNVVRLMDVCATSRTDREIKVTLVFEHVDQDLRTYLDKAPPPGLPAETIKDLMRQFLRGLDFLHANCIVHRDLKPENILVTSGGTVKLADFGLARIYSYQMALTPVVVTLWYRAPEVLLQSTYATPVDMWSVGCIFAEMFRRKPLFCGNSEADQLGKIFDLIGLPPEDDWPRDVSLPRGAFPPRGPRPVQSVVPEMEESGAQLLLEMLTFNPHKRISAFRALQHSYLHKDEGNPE
T2 sequence (P24385 whole entry partner): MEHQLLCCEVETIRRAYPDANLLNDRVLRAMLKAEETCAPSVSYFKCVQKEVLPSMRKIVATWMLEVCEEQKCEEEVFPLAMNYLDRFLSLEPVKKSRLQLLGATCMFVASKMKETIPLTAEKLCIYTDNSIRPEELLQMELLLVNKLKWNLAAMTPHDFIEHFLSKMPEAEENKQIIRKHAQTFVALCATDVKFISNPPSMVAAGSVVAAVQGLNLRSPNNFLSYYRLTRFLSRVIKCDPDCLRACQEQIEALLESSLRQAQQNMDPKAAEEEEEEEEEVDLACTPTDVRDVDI
Experimental: CDK4/CyclinD1 Enzymatic Activity Assay
as §1, with “Bio-One). CDK4/Cyclin D1” for “Bio-One). CDK9/Cyclin T1”, “complex CDK4/Cyclin D1,” for “complex CDK9/Cyclin T1,”, “mixing CDK4/CyclinD1” for “mixing CDK9/CyclinT1”, “ULight-4E-BP1 (100” for “ULight-4E-BP1 (50”, “ATP (2” for “ATP (1”

H929 cells = experiment: CellTiter-Glo Protocol (Proliferation); format: cell-based; conditions: Homo sapiens, NCI-H929, 24 hours, read-out: PROLIFERATION_CTG_H929 IC50
Experimental: CellTiter-Glo® Protocol (Proliferation)
Dispense 10 μL aliquot of prepared H929 cells (1:1 ratio of cells: Trypan Blue (#1450013, Bio-Rad)) onto cell counting slide (#145-0011, Bio-Rad) and obtain cell density and cell viability using a cell counter (TC20, Bio-Rad). Remove appropriate volume of resuspended cells from culture flask to accommodate 4000 cells/well at 10 μL/well. Transfer H929 cells to 50 mL conical (#430290, Corning). Spin down at 1000 rpm for 5 min. using a tabletop centrifuge (SPINCHRON 15, Beckman). Discard supernatant and resuspend cell pellet in modified RPMI 1640 (#10-040-CV, Corning) cell culture media containing 10% FBS (F2422-500ML, Sigma), sodium pyruvate (100 mM) (#25-000-CL, Corning), HEPES buffer (1M) (#25-060-CL, Corning) and glucose (200 g/L) (A24940-01, Gibco) to a cell density of 400,000 cells/mL. Dispense 10 μL of resuspended H929 cells per well in 384-well small volume TC treated plate (#784080, Greiner Bio-one) using standard cassette (#50950372, Thermo Scientific) on Multidrop Combi (#5840310, Thermo Scientific) in laminar flow cabinet. Dispense compounds onto plates using a digital liquid dispenser (D300E, Tecan). Incubate plates in humidified tissue culture incubator at 37° C. for 24 hours. Add 10 μL of prepared CellTiTer-Glo® detection buffer (G7570, Promega) to each well of 384-well plate using small tube cassette (#24073295, Thermo Scientific) on Combi multi-drop, incubate at RT for 30-60 min. Read plates with a microplate reader (PheraStar, BMG Labtech) using 384 well luminescence mode. See Table B (Proliferation_CTG_H929).

CDK2/Cyclin A2 = target: T3, CDK2/Cyclin A2 (Homo sapiens, UniProt P24941); experiment: CDK2/CyclinA2 Enzymatic Activity Assay (TR-FRET); format: biochemical; conditions: ATP 1 mM, recombinant CDK2/Cyclin A2 1 nM, read-out: CDK2_A2 IC50
T3 construct: purchased ProQinase; host or cells: insect cell
Experimental: CDK2/CyclinA2 Enzymatic Activity Assay
as §1, with “(Greiner Bio-One). CDK2/Cyclin A2 catalyzed phosphorylation” for “(Greiner Bio-One). CDK9/Cyclin T1 catalyzed phosphorylation”, “protein complex CDK2/Cyclin A2, expressed from” for “protein complex CDK9/Cyclin T1, expressed from”, “by mixing CDK2/CyclinA2 (1 nM” for “by mixing CDK9/CyclinT1 (1 nM”, “20 minutes preincubation at” for “20 minutes of preincubation at”, “stopped by addition of” for “stopped by the addition of”

T1 sequence (P50750 whole entry): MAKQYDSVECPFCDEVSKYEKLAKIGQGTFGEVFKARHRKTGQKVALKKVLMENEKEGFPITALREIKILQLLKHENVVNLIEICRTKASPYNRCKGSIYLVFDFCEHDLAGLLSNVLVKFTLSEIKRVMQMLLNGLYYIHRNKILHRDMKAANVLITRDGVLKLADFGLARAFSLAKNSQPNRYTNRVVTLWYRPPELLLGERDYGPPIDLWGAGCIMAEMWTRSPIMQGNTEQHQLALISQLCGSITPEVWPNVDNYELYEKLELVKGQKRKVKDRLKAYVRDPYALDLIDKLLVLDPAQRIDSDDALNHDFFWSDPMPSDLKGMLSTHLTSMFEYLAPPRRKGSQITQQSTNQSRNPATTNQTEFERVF
T1 sequence (O60563 whole entry partner): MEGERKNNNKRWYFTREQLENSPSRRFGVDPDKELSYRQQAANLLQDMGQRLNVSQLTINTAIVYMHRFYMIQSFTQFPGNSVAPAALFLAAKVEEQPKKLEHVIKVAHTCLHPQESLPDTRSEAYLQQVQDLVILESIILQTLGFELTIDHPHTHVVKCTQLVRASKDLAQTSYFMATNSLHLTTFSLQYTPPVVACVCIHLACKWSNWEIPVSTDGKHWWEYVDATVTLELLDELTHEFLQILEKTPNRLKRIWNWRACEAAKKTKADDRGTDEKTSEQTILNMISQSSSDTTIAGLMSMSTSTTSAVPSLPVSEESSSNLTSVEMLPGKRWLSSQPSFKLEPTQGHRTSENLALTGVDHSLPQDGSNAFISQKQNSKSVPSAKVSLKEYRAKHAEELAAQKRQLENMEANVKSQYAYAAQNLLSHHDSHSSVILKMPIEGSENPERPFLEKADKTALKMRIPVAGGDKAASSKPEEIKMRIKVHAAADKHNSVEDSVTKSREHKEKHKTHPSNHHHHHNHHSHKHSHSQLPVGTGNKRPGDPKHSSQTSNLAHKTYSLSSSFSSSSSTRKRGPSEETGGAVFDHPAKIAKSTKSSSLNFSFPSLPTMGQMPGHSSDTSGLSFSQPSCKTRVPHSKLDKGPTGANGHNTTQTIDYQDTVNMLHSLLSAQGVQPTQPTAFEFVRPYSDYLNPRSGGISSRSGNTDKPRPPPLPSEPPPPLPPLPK

Q: Which IC50 (CDK9/Cyclin T1) does the source give for Cc1cnc(NC(=O)[C@H]2CCC[C@@H](NC(=O)CC#N)C2)cc1-c1cccc2c1OCCN2 [Example 8, (1S,3R)-3-(2-cyanoacetamido)-N-(4-(3,4-dihydro-2H-benzo[b][1,4]oxazin-8-yl)-5-methylpyridin-2-yl)cyclohexane-1-carboxamide] here?
A: 0.02 to 0.2 µM

Q: What about the IC50 (CDK4/Cyclin D1) of the same molecule?
A: > 1 µM

Q: And the IC50 (H929 cells)?
A: 0.2 to 1 µM

Q: And the IC50 (CDK2/Cyclin A2)?
A: > 1 µM

Source: patent US20230265083A1, “Heterocycle CDK Inhibitors And Their Use Thereof” (Prelude Therapeutics Incorporated, priority 2020, published 2023)
